Measurements reported in patent publication US20230132386A9, “GRANZYME B DIRECTED IMAGING AND THERAPY” (CytoSite Biopharma Inc., priority 2019, published 2023).

Assays:
[1] = target: T1, Granzyme B (human lymphocytes) (Homo sapiens, UniProt P10144); assay: human Granzyme B biochemical assay; conditions: Granzyme B (human lymphocytes) 5 nM, substrate Ac-IETD-AFC 200 μM, 30 mins incubation, 22° C.
T1 construct: Supplied Granzyme B (human lymphocytes) enzyme is reconstituted to 1 mg/ml (about 31.25 μM); purchased Enzo Lifesciences ALX-200-602-0010; host or cells: human lymphocytes
Description: The compounds of Formula I described above can be tested using the human Granzyme B biochemical assay provided below.
• 1. Granzyme B (human lymphocytes) Enzyme: Enzo Lifesciences, Cat #ALX-200-602-0010 • 2. Substrate (Ac-IETD-AFC): Enzo Lifesciences, Cat #ALX-260-110-M010 • 3. Standard inhibitor (Compound 20-Isomer3): Synthesized internally in TCG • 4. Dimethyl sulfoxide (DMSO): Sigma-Aldrich, Cat #41639 • 5. HEPES: Gibco, Cat #15630-080 • 6. Calcium chloride: Sigma-Aldrich, Cat #C-5080 • 7. Distilled water: Gibco, Cat #15230-162 • 8. Bovine serum albumin (BSA): Sigma-Aldrich, Cat #A3059 • 9. Black, clear bottom PDL plate (384 wells): Greiner bio-one, Cat #781946 • 10. Polypropylene plate (384 wells): Corning, Cat #3657
• 1. DMSO is added to the respective compound vial to make 10 mM Compound stock solution, which is stored at −20° C. • 2. 10 mM Compound stock solution is thawed and 1 mM DMSO stock solution is prepared by adding 45 μl of DMSO to 5 μl of 10 mM compound stock solution. • 3. 1 mM DMSO stock solution is serially diluted (3.16 fold) by adding 10 μl of 1 mM DMSO stock to 21.6 μl of DMSO and mixed well. 10 μl of the resulting solution is then added to 21.6 μl of DMSO and mixed well. This process is continued to created 11 dilution points for the assay standard inhibitor and 8 dilution points for test compounds in 384 well polypropylene plate. • 4. 2 μl of each dilution are dispensed in assay ready plate. 5. Each well is then diluted 25 fold by adding 48 μl of assay buffer to 2 μl of compound in assay ready plate to make Compound working stock.
• 1. Supplied Granzyme B (human lymphocytes) enzyme is reconstituted to 1 mg/ml (about 31.25 μM) and 1 μl aliquots are kept in −80° C. • 2. 1 μl aliquot is diluted to 625 nM by adding 49 μl of assay buffer containing 0.1% BSA and gently mixed. • 3. 10 nM enzyme working stock is prepared by adding assay buffer containing 0.1% BSA.
• 1. Supplied substrate (Ac-IETD-AFC) is reconstituted by adding DMSO to make 10 mM stock, aliquoted and stored in −80° C. • 2. 4 mM substrate mid stock is prepared by adding DMSO. • 3. Substrate working stock i.e. 800 μM is prepared by adding assay buffer.
• 1. 10 μl of serially diluted Compound working stock (start dose 40 μM) is added from assay ready plate to assay plate according to the plate map. • 2. Positive control (40 μM of standard inhibitor) and negative control (4% DMSO buffer) are added to the respective wells. • 3. 20 μl of Enzyme working stock is added to assay plate and gently mixed. • 4. The plate is incubated at 22° C. for 30 mins and spun at 130 g for 1 minute. • 5. After incubation, 10 μl of Substrate working stock is added to respective wells and mixed (Assay plate is maintained in dark after substrate addition). • 6. The plate is incubated at 22° C. for 60 mins and spun at 130 g for 1 minute. • 7. Fluorescence read (RFU) (Ex: 400 nm/Em: 505 nm) is taken after 60 mins in EnVision Multimode plate reader.
• 1. The RFU read is analyzed to calculate percent inhibition by normalizing with positive and negative controls taken as 100% and 0% effect respectively in Microsoft excel. • 2. Graph is generated by putting the analyzed data in GraphPad prism 5.0 software to get IC50 value for each compound.

[2] = metabolic stability assay using liver microsomes; type: in vitro ADME; conditions: human liver microsomes 0.4 mg/ml, 1 μM, NRS, 37° C.
Method: In addition, compounds of Formula I described above are also tested in the metabolic stability assay using liver microsomes, as provided below.
Buffer pH7.4: Prepare 1 (M) KH2PO4 and 1 (M) K2HPO4. Titrate 1(M) K2HPO4 with 1 (M) KH2PO4 to obtain pH 7.40. Dilute this buffer 10 fold in Water (30 ml buffer+270 ml of water) to obtain 100 mM phosphate buffer. Adjust pH to 7.40±0.02 using 5(N) HCl or 5(N) NaOH.
NADPH Regeneration System (NRS): Prepare a solution containing 13 mM NADP, 33 mM Glucose-6-phosphate, 33 mM MgCl2 and 4 U/ml Glucose-6-phosphate dehydrogenase in buffer.
Liver Microsome (LM) suspension: Thaw LM vial on ice, then mix 1.0 ml LM (20 mg/ml) with 19 ml buffer [final LM Conc: 1 mg/ml]
LM+NRS suspension: Mix 5.0 ml NRS with 20 ml LM suspension [final LM Conc: 0.8 mg/ml]
System suitability standard: a synthesized compound having Mol wt 686.2 used as System suitability standard. Dissolve this compound in ice-cold acetonitrile to obtain concentration of 0.1 μg/ml and store at 4° C.
Sub stock (100 μM): 4 μl of 10 mM Compound Stock+398 μl Acetonitrile Working plate (2 μM): 10 μl of 100 μM Sub stock+490 μl buffer
Incubate all plastic materials including tips at 37° C. overnight.
Incubate LM suspension and NRS at 37° C. for 15 min before use.
Add 40 μl buffer to the wells of blank plate.
Add 40 μl compound (from working plate) to 0, 5, 10, 20, 30 and 60 min plates.
Initiate reaction by adding 40 μl of LM+NRS suspension in each plate.
Terminate reaction by adding 240 μl ice-cold acetonitrile containing system suitability standard at designated time points. For T=0 add 240 μl ice-cold acetonitrile containing system suitability standard before LM+NRS addition.
Centrifuge (3500 rpm, 20 min and 15° C.) the plates.
Mix 110 μl supernatant with 110 μl water and quantitate amount of Compound in the solution using LC-MS/MS.
% Remaining at t=x min=100×([LC-MS/MS peak area of analyte]t=x min)/([LC-MS/MS peak area of analyte]t=0min)
Human LM: Corning, Cat #25117
Certain compounds of this disclosure were tested in the microsomal stability assay provided above.

T1 sequence (P10144 21-247): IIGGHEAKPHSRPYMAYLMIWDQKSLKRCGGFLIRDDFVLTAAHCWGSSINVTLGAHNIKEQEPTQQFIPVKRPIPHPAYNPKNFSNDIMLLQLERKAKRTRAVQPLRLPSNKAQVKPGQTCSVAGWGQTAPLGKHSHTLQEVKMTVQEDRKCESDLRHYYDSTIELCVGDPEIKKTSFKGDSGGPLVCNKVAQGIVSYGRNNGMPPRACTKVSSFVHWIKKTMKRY

| Compound | IC50 [1] | Human Liver Microsomes % remaining @30 min [2] |
| --- | --- | --- |
| CC[C@H](C)[C@@H](C(=O)N[C@H]1CCc2cccc3c2N(C1=O)[C@H](C(=O)NCc1c[nH]nn1)C3)N(C)C(=O)Cc1csc2ccccc12 (single isomer, unassigned) [Compound C152] | 301 to 1000 nM |  |
| CC[C@H](C)[C@@H](C(=O)N[C@H]1CCc2cccc3c2N(C1=O)[C@H](C(=O)NCc1c[nH]nn1)C3)N(C)C(=O)COCCF (single isomer, unassigned) [Compound C155] | 301 to 1000 nM | 66.3% |
| CC[C@H](C)[C@@H](C(=O)N[C@H]1CCc2cccc3c2N(C1=O)[C@H](C(=O)NCc1c[nH]nn1)C3)N(CC)C(=O)COCCF (single isomer, unassigned) [Compound C176] | 301 to 1000 nM |  |
| CC[C@H](C)[C@@H](C(=O)N[C@H]1CCc2cccc3c2N(C1=O)[C@H](C(=O)NCc1c[nH]nn1)C3)N(C(=O)COCCF)C(C)C (single isomer, unassigned) [Compound C177] | 1000 to 5000 nM |  |
| CC[C@H](C)[C@@H](C(=O)N[C@H]1CCc2cccc3c2N(C1=O)[C@H](C(=O)NCc1c[nH]nn1)C3)N(CCOCCF)C(=O)Cc1nc2ccccc2o1 (single isomer, unassigned) [Compound C178] | 301 to 1000 nM | 0.8% |
| CC[C@H](C)[C@@H](C(=O)N[C@H]1CCc2cccc3c2N(C1=O)[C@H](C(=O)NCc1c[nH]nn1)C3)N(CCOCCCF)C(=O)Cc1nc2ccccc2o1 (single isomer, unassigned) [Compound C179] | 301 to 1000 nM |  |
| CC[C@H](C)[C@@H](C(=O)N[C@H]1CCc2cccc3c2N(C1=O)[C@H](C(=O)NCc1c[nH]nn1)C3)N(CCc1csc2ccccc12)C(C)=O (single isomer, unassigned) [Compound C184] | > 5000 nM |  |
| CC[C@H](C)[C@@H](C(=O)N[C@H]1CCc2cccc3c2N(C1=O)[C@H](C(=O)NCc1c[nH]nn1)C3)N(C)C(=O)CC(=O)O (single isomer, unassigned) [Compound C190] | 301 to 1000 nM |  |
| CC[C@H](C)[C@@H](C(=O)N[C@H]1CCc2cccc3c2N(C1=O)[C@H](C(=O)NCc1c[nH]nn1)C3)N(C)C(=O)CC(N)=O (single isomer, unassigned) [Compound C191] | 301 to 1000 nM | 83.6% |
| CC[C@H](C)[C@@H](C(=O)N[C@H]1CCc2cccc3c2N(C1=O)[C@H](C(=O)NCc1c[nH]nn1)C3)N(C)C(=O)CC(=O)NC (single isomer, unassigned) [Compound C192] | 301 to 1000 nM | 72.8% |
| CC[C@H](C)[C@@H](C(=O)N[C@H]1CCc2cccc3c2N(C1=O)[C@H](C(=O)NCc1c[nH]nn1)C3)N(C)C(=O)CC(=O)N(C)C (single isomer, unassigned) [Compound C193] | 301 to 1000 nM |  |
| CC[C@H](C)[C@@H](C(=O)N[C@H]1CCc2cccc3c2N(C1=O)[C@H](C(=O)NCc1c[nH]nn1)C3)N(C)C(=O)CC(=O)OC (single isomer, unassigned) [Compound C194] | 301 to 1000 nM |  |
| CC[C@H](C)[C@@H](C(=O)N[C@H]1CCc2cccc3c2N(C1=O)[C@H](C(=O)NCc1c[nH]nn1)C3)N(C)C(=O)Cc1c[nH]cn1 (single isomer, unassigned) [Compound C197] | 301 to 1000 nM |  |
| CC[C@H](C)[C@@H](C(=O)N[C@H]1CCc2cccc3c2N(C1=O)[C@H](C(=O)NCc1c[nH]nn1)C3)N(C)C(=O)Cn1ccnc1 (single isomer, unassigned) [Compound C198] | 301 to 1000 nM | 55.4% |
| CC[C@H](C)[C@@H](C(=O)N[C@H]1CCc2cccc3c2N(C1=O)[C@H](C(=O)NCc1c[nH]nn1)C3)N(CCOCCF)C(C)=O (single isomer, unassigned) [Compound C203] | 301 to 1000 nM |  |
| CC[C@H](C)[C@@H](C(=O)N[C@H]1CCc2cccc3c2N(C1=O)[C@H](C(=O)NCc1c[nH]nn1)C3)N(CCC(=O)O)C(=O)COCCF (single isomer, unassigned) [Compound C230] | 301 to 1000 nM | 98.2% |
| N-Methyl-N-((1S,2S)-2-methyl-1- {(1S,8S)-9-oxo-1-[(1H-[1,2,3]triazol- 4-y lmethyl)-carbamoyl]-1,2,8,9- tetrahydro-7H-6-oxa-9a-aza- benzo[cd]azu1en-8-ylcarbamoyl}- butyl)-malonamic acid [Compound C214] | 301 to 1000 nM | 100.0% |
